# Reference: patent US20240383893A1, “Hydroxamic Acid Compound Having ENPP1 Inhibitory Activity and Use Thereof” (Haihe Biopharma Co., Ltd., priority 2021, published 2024)
# pIC50: −log10 of the molar value.
# Molecular target: ENPP1 (hENPP1-ECD-His) (Homo sapiens (Human), UniProt P22413)
# Sequence (P22413 98-925): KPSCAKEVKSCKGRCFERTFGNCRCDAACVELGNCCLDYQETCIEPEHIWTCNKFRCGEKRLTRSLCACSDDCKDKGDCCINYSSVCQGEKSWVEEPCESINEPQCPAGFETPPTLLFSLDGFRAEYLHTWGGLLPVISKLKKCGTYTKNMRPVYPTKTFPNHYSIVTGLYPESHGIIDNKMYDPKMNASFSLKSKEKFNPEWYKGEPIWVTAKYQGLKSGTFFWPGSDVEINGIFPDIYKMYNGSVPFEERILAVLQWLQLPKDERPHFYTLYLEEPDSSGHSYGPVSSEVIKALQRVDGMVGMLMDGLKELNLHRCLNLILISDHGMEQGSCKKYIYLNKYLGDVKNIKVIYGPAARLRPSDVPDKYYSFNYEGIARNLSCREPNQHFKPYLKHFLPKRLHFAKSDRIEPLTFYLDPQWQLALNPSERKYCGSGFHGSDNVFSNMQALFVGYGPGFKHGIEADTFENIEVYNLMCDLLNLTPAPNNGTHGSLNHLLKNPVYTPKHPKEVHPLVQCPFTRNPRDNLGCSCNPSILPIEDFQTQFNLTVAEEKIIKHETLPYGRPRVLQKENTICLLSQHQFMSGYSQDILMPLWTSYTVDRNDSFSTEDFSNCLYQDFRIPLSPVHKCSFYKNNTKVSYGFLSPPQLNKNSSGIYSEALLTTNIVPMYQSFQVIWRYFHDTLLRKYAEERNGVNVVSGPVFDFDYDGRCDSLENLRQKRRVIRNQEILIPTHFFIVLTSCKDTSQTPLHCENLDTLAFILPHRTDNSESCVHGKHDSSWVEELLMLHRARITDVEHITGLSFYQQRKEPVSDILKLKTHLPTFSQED
row,SMILES,pIC50
1,COc1ccc2c(N3CCc4cc(C5(C(=O)NO)CCOCC5)ccc43)ccnc2n1 [Compound 158],8.00
2,COc1ccc2c(Oc3ccc(CC(=O)NO)cc3F)ccnc2n1 [Compound 26],8.89
3,COc1ccc2c(Oc3ccc(C4(C(=O)NO)CCOCC4)c(C)c3)ccnc2n1 [Compound 139],8.64
4,O=C(Cc1ccc(Nc2ncnc3c2cnn3CC(F)(F)F)cc1)NO [Compound 57],6.29
5,COc1ccc2c(Oc3ccc(CC(=O)NO)c(F)c3)ccnc2n1 [Compound 25],8.72
6,CCn1ncc2c(Nc3ccc(C(C)(C)C(=O)NO)cc3)ccnc21 [Compound 82],8.77
7,COc1cc2nccc(Nc3ccc(CC(=O)NO)cc3F)c2cn1 [Compound 190],8.41
8,Cn1ncc2c(Oc3ccc(C4(C(=O)NO)CCOCC4)c(Cl)c3)ccnc21 [Compound 197],6.95
9,COc1ccc2c(CN3CCC(C(C)(C)C(=O)NO)C3)ccnc2n1 (centres unmarked) [Compound 157],7.09
10,COc1ccc2c(Nc3cnn(C4(C(=O)NO)CCOCC4)c3)ccnc2n1 [Compound 174],8.68
11,Cn1ncc2c(Oc3ccc(C4(C(=O)NO)CCCC4)cc3)ccnc21 [Compound 129],8.24
12,CCn1ncc2c(Oc3ccc(C4(C(=O)NO)CC4)cc3)ccnc21 [Compound 54],8.80
13,COc1ccc2c(Oc3ccc(C(C)(C)C(=O)NO)c(C)c3)ccnc2n1 [Compound 109],8.64
14,CCn1ncc2c(Nc3ccc(CC(=O)NO)c(F)c3)ccnc21 [Compound 193],8.66
15,COc1cc2nccc(Nc3ccc(C4(C(=O)NO)CCOCC4)c(F)c3)c2cn1 [Compound 181],8.72
16,COc1ccc2c(OC3CCN(C(C)(C)C(=O)NO)CC3)ccnc2n1 [Compound 116],7.68
17,CCn1ncc2c(Nc3ccc(CC(=O)NO)cc3F)ccnc21 [Compound 192],8.85
18,COc1ccc2c(Nc3ccc(C(C)(C)C(=O)NO)cc3)ccnc2n1 [Compound 69],8.72
19,CCC(CC)(C(=O)NO)c1ccc(Oc2ccnc3nc(OC)ccc23)cc1 [Compound 124],8.80
20,COc1cc2nccc(Oc3ccc(CC(=O)NO)cc3)c2cc1F [Compound 13],8.86
21,COc1ccc2c(NC3CCC(CC(=O)NO)C3)ccnc2n1 (centres unmarked) [Compound 142],7.89
22,COc1ccc2c(Oc3cc(F)c(C4(C(=O)NO)CCOCC4)cc3F)ccnc2n1 [Compound 134],8.48
23,COc1ccc2c(NC3CCN(CC(=O)NO)C3)ccnc2n1 (centres unmarked) [Compound 143],8.33
24,COc1ccc2c(O[C@H]3CCN(C(C)(C)C(=O)NO)C3)ccnc2n1 [Compound 205],7.41
25,CCn1ncc2c(Nc3ccc(CC(=O)NO)c(Cl)c3)ccnc21 [Compound 77],8.92
26,Cc1ccc2c(Nc3ccc(CC(=O)NO)cc3)ncnc2n1 [Compound 60],6.17

row,SMILES,pIC50
1,COc1ccc2c(Oc3ccc(C(C)(C)C(=O)NO)cc3)cc(C)nc2n1 [Compound 67],8.77
2,O=C(Cc1ccc(Nc2ncnc3nc(O)ccc23)cc1)NO [Compound 31],7.70
3,COc1ccc2c(Nc3ccc(CC(=O)NO)cc3)nc(C)nc2n1 [Compound 37],8.62
4,CC(C(=O)NO)c1ccc(Oc2ccnc3c2cnn3C)cc1 (centres unmarked) [Compound 36],7.62
5,COc1cc2nccc(Nc3cc(F)c(C(C(=O)NO)C(C)C)c(F)c3)c2cn1 (centres unmarked) [Compound 191],7.96
6,COc1ccc2c(Nc3ccc(C4(C(=O)NO)CCOCC4)cc3)c(C#N)cnc2c1 [Compound 180],8.80
7,COc1ccc2c(Nc3ccc(CC(=O)NO)cc3)ccnc2c1 [Compound 4],8.58
8,COc1ccc2c(Nc3ccc(C(C)(C)C(=O)NO)cn3)ccnc2n1 [Compound 101],8.96
9,CCn1ncc2c(Nc3ccc(C(C)(C)C(=O)NO)cc3)ncnc21 [Compound 91],8.92
10,COc1ccc2c(Oc3ccc(C(N)C(=O)NO)cc3)ccnc2n1 (centres unmarked) [Compound 148],8.55
11,CCn1ncc2c(Oc3ccc(C(C)(C)C(=O)NO)cc3)ccnc21 [Compound 53],8.54
12,COc1ccc2c(Nc3cnn(CC(=O)NO)c3)ccnc2n1 [Compound 90],8.35
13,"COc1ccc2c(Oc3ccc(N4CCC[C@H]4C(=O)NO)cc3)ccnc2n1 [Compound 196, (S)—N-hydroxy-1-(4-((7-methoxy-1,8-naphthylidin-4-yl)oxy)phenyl)pyrrolidin-2-formamide]",6.89
14,COc1ccc2c(Nc3ccc(CC(=O)NO)cn3)ccnc2n1 [Compound 45],8.51
15,COc1ccc2c(N[C@H]3CCN(C(C)(C)C(=O)NO)C3)ccnc2n1 [Compound 202],8.48
16,COc1ccc2c(Nc3ccc(C(C(=O)NO)C(C)C)c(F)c3)ccnc2n1 (centres unmarked) [Compound 160],7.82
17,COc1ccc2c(Oc3cccc(C(=O)NO)c3)ccnc2n1 [Compound 63],6.67
18,COc1ccc2c(Nc3ccc4c(c3)OCC4C(=O)NO)ccnc2n1 (centres unmarked) [Compound 59],8.74
19,COc1ccc2c(Nc3ccc(C(C(=O)NO)C(C)C)cc3)ccnc2n1 (centres unmarked) [Compound 161],7.80
20,CCn1nc(C)c2c(Nc3ccc(C(C)(C)C(=O)NO)cc3)ncnc21 [Compound 83],8.36
21,Cn1ncc2ncnc(Nc3ccc(CC(=O)NO)cc3)c21 [Compound 29],7.85
22,COc1ccc2c(Nc3cc(F)c(C(C)C(=O)NO)cc3F)ccnc2n1 (centres unmarked) [Compound 47],8.35
23,COc1ccc2c(NC3CCN(C(C)(C)C(=O)NO)C3)ccnc2n1 (centres unmarked) [Compound 144],6.59
24,COc1ccc2c(Oc3ccc4c(C(=O)NO)cccc4c3)ccnc2n1 [Compound 92],6.77
25,O=C(Cc1ccc(Nc2ncnc3cnccc23)cc1)NO [Compound 35],7.31

# Continued by rising pIC50, values first:
row,pIC50,SMILES
1,5.48,"CONC(=O)C(C)(C)c1ccc(Oc2ccnc3cc(OC)c(OC)cc23)cc1 [Example A-2, reference compound]"
2,6.49,COc1cnc2c(Oc3ccc(CC(=O)NO)cc3)ccnc2c1 [Compound 20]
3,6.55,"Cc1noc2ncnc(Oc3ccc(C(C)(C)C(=O)NO)cc3)c12 [Compound 194, N-hydroxy-2-methyl-2-(4-((3-methylisoxazol[5,4-d]pyrimidin-4-yl)oxy)phenyl)propanamide]"
4,6.59,CC(C)(C(=O)NO)c1ccc(Oc2ccnc3cc(Cl)ccc23)cc1 [Compound 94]
5,6.90,CCOc1ccc2c(Oc3ccc(CC(=O)NO)cc3)ccnc2c1 [Compound 98]
6,7.21,COc1ccc2c(Oc3ccc([C@@H](C(=O)NO)C4CCOCC4)c(F)c3)ccnc2n1 [Compound 198]
7,7.39,Cc1cc(Oc2ccc(C(C)(C)C(=O)NO)cc2)c2cnn(C)c2n1 [Compound 58]
8,7.55,COc1cc2ncnc(Oc3ccc(CC(=O)NO)cc3)c2cc1OC [Compound 11]
9,7.62,COc1ccc2c(N3CCc4cc(CC(=O)NO)ccc43)ccnc2n1 [Compound 204]
10,7.72,Cn1ncc2c(Nc3ccc(CC(=O)NO)cc3)ncnc21 [Compound 15]
11,7.74,COc1ccc2c(Oc3ccc(C(C(=O)NO)C4CCCC4)cc3)ccnc2n1 (centres unmarked) [Compound 170]
12,7.80,COc1ccc2c(Oc3cc(F)c(C(C)(C)C(=O)NO)c(F)c3)ccnc2n1 [Compound 46]
13,7.85,Cn1ncc2c(Oc3ccc(CC(=O)NO)cc3)ccnc21 [Compound 28]
14,8.03,Cn1ncc2c(Nc3ccc(C4(C(=O)NO)CCOCC4)cc3)ncnc21 [Compound 207]
15,8.07,CCn1ncc2c(Oc3ccc(C(C)C(=O)NO)cc3)ccnc21 (centres unmarked) [Compound 73]
16,8.17,COc1ccc2c(Nc3ccc(CC(=O)NO)c4ccccc34)ccnc2n1 [Compound 96]
17,8.18,COc1ccc2c(Oc3ccc(C(CC(C)C)C(=O)NO)cc3)ccnc2n1 (centres unmarked) [Compound 132]
18,8.21,Cc1nn(C)c2nccc(Oc3ccc(C(C)(C)C(=O)NO)cc3)c12 [Compound 84]
19,8.32,COc1ccc2c(Oc3ccc(C(OC)C(=O)NO)cc3)ccnc2n1 (centres unmarked) [Compound 85]

row,pIC50,SMILES
1,8.32,Cn1ncc2c(Nc3ccc(CC(=O)NO)cc3)ccnc21 [Compound 40]
2,8.34,COc1cc2ncnc(Nc3ccc(C(CC(C)C)C(=O)NO)cc3)c2cn1 (centres unmarked) [Compound 188]
3,8.44,COc1cc2nccc(Nc3c(F)cc(C(C(=O)NO)C(C)C)cc3F)c2cn1 (centres unmarked) [Compound 185]
4,8.51,COc1ccc2c(Oc3ccc(C(C)(C(=O)NO)C4CCOCC4)cc3)ccnc2n1 (centres unmarked) [Compound 172]
5,8.52,Cn1ncc2c(Oc3ccc(C(C)(C)C(=O)NO)cc3)ccnc21 [Compound 41]
6,8.57,COc1ccc2c(Nc3cc(F)c(C(C)C(=O)NO)c(F)c3)ccnc2n1 (centres unmarked) [Compound 48]
7,8.60,COc1ccc2c(Oc3cc(F)c(C(C)(C)C(=O)NO)cc3F)ccnc2n1 [Compound 112]
8,8.64,CCn1ncc2c(Nc3ccc(CC(=O)NO)c(OC)c3)ccnc21 [Compound 56]
9,8.66,COc1ccc2c(Oc3ccc(CC(=O)NO)cc3)ncnc2c1 [Compound 8]
10,8.68,COc1ccc2c(Oc3ccc(C(C)C(=O)NO)cc3)ccnc2n1 (centres unmarked) [Compound 27]
11,8.74,COc1ccc2c(Nc3c(F)cc(CC(=O)NO)cc3F)ccnc2n1 [Compound 71]
12,8.74,COc1ccc2c(Nc3ccc(CC(=O)NO)cc3)nc(Cl)nc2c1 [Compound 22]
13,8.74,COc1ccc2c(Oc3ccc4c(c3)CCCC4(C)C(=O)NO)ccnc2n1 (centres unmarked) [Compound 203]
14,8.74,"COc1ccc2c(Nc3ccc(CC(=O)NO)cc3)ncnc2n1 [Example 1, N-hydroxy-2-(4-((7-methoxypyridino[2,3-d]pyrimidin-4-yl)amino)phenyl)acetamide]"
15,8.82,COc1ccc2c(Nc3cnn(C(C)(C)C(=O)NO)c3)ccnc2n1 [Compound 118]
16,8.82,COc1ccc2c(Nc3ccc(C(C)(C)C(=O)NO)cc3)cnnc2c1 [Compound 147]
17,8.85,CCn1ncc2c(Nc3ccc(CC(=O)NO)cc3)ccnc21 [Compound 49]
18,8.92,COc1cc2nccc(Nc3ccc(C4(C(=O)NO)CCOCC4)cc3F)c2cn1 [Compound 178]
19,8.92,COc1cc2nccc(Oc3ccc(C4(C(=O)NO)CCCC4)cc3)c2cn1 [Compound 123]
